From patent US20170066717A1, “NEW PHENYLAZETIDINECARBOXYLATE OR -CARBOXAMIDE COMPOUNDS” (INVENTIVA, priority 2014, published 2017)

What was measured:
[1] = target: T1, NURR-1/RXRα (Homo sapiens, UniProt P19793); experiment: Transactivation test, NURR-1-Gal4/RXRα, luciferase reporter in Cos-7 cells; type: cell-based; conditions: for Emax: COS-7, induction level relative to reference XCT0135908 at 2×10^−5 M (=100%), read-out: hNurr1_RXRaFL Emax (%); for EC50: Cos-7 cells, NURR-1-Gal4/RXRα, luciferase reporter, read-out: hNurr1_RXRaFL EC50
T1 construct: expressed in transfected cells; host or cells: Cos-7 cells

[2] = target: T2, NURR-1/RXRγ (Homo sapiens, UniProt P48443); experiment: Transactivation test, NURR-1-Gal4/RXRγ, luciferase reporter in Cos-7 cells; type: cell-based; conditions: for Emax: COS-7, induction level relative to reference XCT0135908 at 2×10^−5 M (=100%), read-out: hNurr1_RXRgFL Emax (%); for EC50: Cos-7 cells, NURR-1-Gal4/RXRγ, luciferase reporter, read-out: hNurr1_RXRgFL EC50
T2 construct: expressed in transfected cells; host or cells: Cos-7 cells
T2 sequence (P48443 whole entry, the tested form may be a part): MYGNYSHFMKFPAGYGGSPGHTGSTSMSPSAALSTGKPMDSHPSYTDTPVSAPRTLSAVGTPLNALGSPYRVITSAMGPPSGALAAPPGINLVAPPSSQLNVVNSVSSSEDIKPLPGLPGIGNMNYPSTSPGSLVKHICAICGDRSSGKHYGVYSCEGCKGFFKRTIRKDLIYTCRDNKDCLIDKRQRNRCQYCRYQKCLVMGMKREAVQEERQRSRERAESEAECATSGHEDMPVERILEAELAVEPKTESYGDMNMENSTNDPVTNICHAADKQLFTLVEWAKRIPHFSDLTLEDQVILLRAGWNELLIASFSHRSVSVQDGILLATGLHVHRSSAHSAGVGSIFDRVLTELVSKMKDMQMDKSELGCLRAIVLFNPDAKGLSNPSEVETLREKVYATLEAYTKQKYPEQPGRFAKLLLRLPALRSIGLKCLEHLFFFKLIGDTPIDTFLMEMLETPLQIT
T2 sequence (P43354 whole entry partner, the tested form may be a part): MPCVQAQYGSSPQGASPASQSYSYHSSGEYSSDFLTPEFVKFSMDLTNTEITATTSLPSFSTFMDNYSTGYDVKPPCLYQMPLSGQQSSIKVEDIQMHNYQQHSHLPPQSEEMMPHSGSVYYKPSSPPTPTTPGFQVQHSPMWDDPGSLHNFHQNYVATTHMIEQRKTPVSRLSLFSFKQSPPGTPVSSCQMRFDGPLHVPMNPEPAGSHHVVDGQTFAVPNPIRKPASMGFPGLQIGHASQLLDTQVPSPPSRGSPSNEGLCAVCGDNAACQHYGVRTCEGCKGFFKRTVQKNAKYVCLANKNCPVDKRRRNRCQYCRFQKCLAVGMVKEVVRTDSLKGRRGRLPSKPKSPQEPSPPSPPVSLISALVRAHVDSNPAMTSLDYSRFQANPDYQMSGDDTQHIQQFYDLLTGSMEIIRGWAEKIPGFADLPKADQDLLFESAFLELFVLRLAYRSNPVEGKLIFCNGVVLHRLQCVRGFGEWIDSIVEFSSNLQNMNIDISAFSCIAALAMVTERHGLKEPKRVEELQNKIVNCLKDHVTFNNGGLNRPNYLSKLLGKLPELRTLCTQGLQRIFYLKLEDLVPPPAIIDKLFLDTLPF
T2 sequence (P04386 1-147 partner limits assumed): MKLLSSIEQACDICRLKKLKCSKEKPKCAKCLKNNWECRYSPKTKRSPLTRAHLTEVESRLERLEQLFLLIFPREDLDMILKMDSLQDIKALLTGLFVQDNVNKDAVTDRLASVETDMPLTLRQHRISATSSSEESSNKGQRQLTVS

T1 sequence (P19793 whole entry, the tested form may be a part): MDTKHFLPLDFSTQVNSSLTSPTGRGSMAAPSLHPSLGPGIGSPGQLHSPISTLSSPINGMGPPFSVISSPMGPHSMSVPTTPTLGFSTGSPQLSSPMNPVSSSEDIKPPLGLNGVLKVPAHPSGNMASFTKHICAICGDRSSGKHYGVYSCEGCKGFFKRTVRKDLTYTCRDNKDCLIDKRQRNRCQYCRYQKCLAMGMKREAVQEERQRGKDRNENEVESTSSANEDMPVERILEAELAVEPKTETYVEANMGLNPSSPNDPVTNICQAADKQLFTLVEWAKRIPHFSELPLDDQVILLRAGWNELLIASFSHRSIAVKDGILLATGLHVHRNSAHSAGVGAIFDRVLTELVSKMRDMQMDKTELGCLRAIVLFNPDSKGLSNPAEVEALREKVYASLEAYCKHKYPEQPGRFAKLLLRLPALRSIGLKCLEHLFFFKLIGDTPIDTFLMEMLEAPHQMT
T1 sequence (P43354 whole entry partner, the tested form may be a part): as the sequence (P43354 whole entry partner, the tested form may be a part) above
T1 sequence (P04386 1-147 partner limits assumed): as the sequence (P04386 1-147 partner limits assumed) above

SMILES | Emax [1] [%] | EC50 [1] [µM] | melting point [°C] | Emax [2] [%] | EC50 [2] [µM]
CC(C)c1cc2c(c(-c3cccc(N4CC(C(=O)O)C4)c3)c1)NCC(C)(C)O2 [Example 191, 1-[3-(7-isopropyl-2,2-dimethyl-3,4-dihydro-1,4-benzoxazin-5-yl)phenyl]azetidine-3-carboxylic acid] | 90 | 0.031 | 78 to 83 | 91 | 0.047
Cc1cc2c(cc1-c1cccc(N3CC(C(=O)O)C3)c1)C(C)(C)CCC2(C)C [Example 85, 1-[3-(1,1,4,4,7-pentamethyltetralin-6-yl)phenyl]azetidine-3-carboxylic acid] | 112 | 0.019 | 130 to 141 | 116 | 0.049
CC1(C)Cc2cc(Cl)ccc2N(c2cccc(N3CC(C(=O)[O-])C3)c2)C1.[Na+] [Example 243, sodium 1-[3-(6-chloro-3,3-dimethyl-2,4-dihydroquinolin-1-yl)phenyl]azetidine-3-carboxylate] | 83 | 0.058 | 70 to 80 | 89 | 0.034
CC1Nc2c(cc(C(F)(F)F)cc2-c2cccc(N3CC(C(=O)O)C3)c2)OC1(C)C (centres unmarked) [Example 197, 1-[3-[2,2,3-trimethyl-7-(trifluoromethyl)-3,4-dihydro-1,4-benzoxazin-5-yl]phenyl]azetidine-3-carboxylic acid] | 55 | 0.014 | 83 to 95 | 50 | 0.034
CC1(C)Cc2cc(C(F)(F)F)ccc2N(c2cccc(N3CC(C(=O)O)C3)c2)C1 [Example 219, 1-[3-[3,3-dimethyl-6-(trifluoromethyl)-2,4-dihydroquinolin-1-yl]phenyl]azetidine-3-carboxylic acid] | 105 | 0.005 | 66 to 84 | 110 | 0.032
CC(C)C1CNc2c(cc(C(F)(F)F)cc2-c2cccc(N3CC(C(=O)O)C3)c2)O1 (centres unmarked) [Example 198, 1-[3-[2-isopropyl-7-(trifluoromethyl)-3,4-dihydro-2H-1,4-benzoxazin-5yl]phenyl]azetidine-3-carboxylic acid] | 71 | 0.014 | 88 to 89 | 59 | 0.038
CC(C)N(C)Cc1cn(-c2cccc(N3CC(C(=O)O)C3)c2)c2ccc(C(F)(F)F)cc12 [Example 134, 1-[3-[3-[[iisopropyl(methyl)amino]methyl]-5-(trifluoromethyl)indol-1-yl]phenyl]azetidine-3-carboxylic acid] | 89 | 0.227 | 88 to 95 | 108 | 0.664
CC(C)CC1Oc2cc(C(F)(F)F)ccc2N(c2cccc(N3CC(C(=O)O)C3)c2)C1=O (centres unmarked) [Example 246, 1-[3-[2-isobutyl-3-oxo-7-(trifluoromethyl)-1,4-benzoxazin-4-yl]phenyl]azetidine-3-carboxylic acid] | 96 | 0.013 | 86 to 96 | 94 | 0.053
CC1(C)CN(c2cccc(N3CC(C(=O)[O-])C3)c2)c2cnc(C(F)(F)F)cc2O1.[Na+] [Example 242, sodium 1-[3-[2,2-dimethyl-7-(trofluoromethyl)-3H-pyrido[4,3-b][1,4]ozaxin-4-yl]phenyl]azetidine-3-carboxylate] | 84 | 0.227 | 149 to 155 | 76 | 0.299
Cc1cc2c(c(-c3cccc(N4CC(C(=O)O)C4)c3)c1)NCC(C)(C)O2 [Example 190, 1-[3-(2,2,7-trimethyl-3,4-dihydro-1,4-benzoxazin-5-yl)phenyl]azetidine-3-carboxylic acid] | 110 | 0.018 | 82 to 90 | 109 | 0.036
CC1N(c2cccc(N3CC(C(=O)O)C3)c2)c2ccc(C(F)(F)F)cc2OC1(C)C (centres unmarked) [Example 216, 1-[3-[2,2,3-trimethyl-7-(trifluoromethyl)-3H-1,4-benzoxazin-4-yl]phenyl]azetidine-3-carboxylate acid] | 98 | 0.008 | 70 to 80 | 115 | 0.013
Cc1cn(-c2cccc(N3CC(C(=O)NS(C)(=O)=O)C3)c2)c2ccc(C(F)(F)F)cc12 [Example 150, N-methylsulfonyl-1-[3-[3-methyl-5-(trifluoromethyl)indol-1-yl]phenyl]azetidine-3-carboxamide] | 89 | 0.004 | 99 to 109 | 79 | 0.004
COc1cc(N2CC(C(=O)O)C2)cc(N2CC(C)(C)Oc3cc(C(F)(F)F)ccc32)c1 [Example 236, 1-[3-[2,2-dimethyl-7-(trifluoromethyl)-3H-1,4-benzoxazin-4-yl]-5-methoxyphenyl]azetidine-3-carboxylic acid] | 93 | 0.021 | 70 to 75 | 98 | 0.063
CC1(C)CNc2c(cc(Cl)cc2-c2cccc(N3CC(C(=O)O)C3)c2)O1 [Example 189, 1-[3-(7-chloro-2,2-dimethyl-3,4-dihydro-1,4-benzoxazin-5-yl)phenyl]azetidine-3-carboxylic acid] | 110 | 0.013 | 81 to 88 | 119 | 0.475
O=C(O)C1CN(c2cccc(N3CC4(CCOCC4)c4cc(C(F)(F)F)ccc43)c2)C1 [Example 141, 1-[3-[5-(trifluoromethyl)spiro[indoline-3,4′-tetrahydropyran]-1-yl]phenyl]azetidine-3-carboxylic acid] | 92 | 0.14 | 154 to 162 | 113 | 0.199
O=C(O)C1CN(c2cccc(-c3cc(C(F)(F)F)nc4cc(Cl)ccc34)c2)C1 [Example 82, 1-[3-[7-chloro-2-(trifluoromethyl)-4-quinolyl]phenyl]azetidine-3-carboxylic acid] | 110 | 0.031 | 98 to 101 | 99 | 0.072
CCC1Oc2cc(C(F)(F)F)ccc2N(c2cccc(N3CC(C(=O)O)C3)c2)C1=O (centres unmarked) [Example 123, 1-[3-[2-ethyl-3-oxo-7-(trifluromethyl)-1,4-benzoxazin-4-yl]phenyl]azetidine-3-carboxylic acid] | 90 | 0.121 | 148 to 152 | 77 | 0.037
CCC1(CC)Oc2cc(C(F)(F)F)ccc2N(c2cccc(N3CC(C(=O)O)C3)c2)C1=O [Example 247, 1-[3-[2,2-diethyl-3-oxo-7-(trifluoromethyl)-1,4-benzoxazin-4-yl]phenyl]azetidine-3-carboxylic acid] | 100 | 0.019 | 73 to 85 | 92 | 0.043
CC(C)c1ccc2c(c1)OCCN2c1cccc(N2CC(C(=O)O)C2)c1 [Example 232, 1-[3-(7-isopropyl-2,3-dihydro-1,4-benzoxazin-4-yl)phenyl]azetidine-3-carboxylic acid] | 97 | 0.386 | 48 to 51 | 99 | 0.465
O=C([O-])C1CN(c2cccc(N3c4ccc(Cl)cc4C4CC43)c2)C1.[Na+] (centres unmarked) [Example 280, sodium 1-[3-(5-chloro-1a,6b-dihydro-1H-cyclopropa[b]indol-2-yl)phenyl]azetidine-3-carboxylate] | 95 | 0.082 | 62 to 69 | 77 | 0.148
CC1(C)Oc2cc(C(C)(C)C)ccc2N(c2cccc(N3CC(C(=O)[O-])C3)c2)C1=O.[Na+] [Example 250, sodium 1-[3-(7-tert-butyl-2,2-dimethyl-3-oxo-1,4-benzoxazin-4-yl)phenyl]azetidine-3-carboxylate] | 98 | 0.289 | 178 to 198 | 83 | 0.288
Cc1ccc(N2CC(C)(C)Oc3cc(C(F)(F)F)ccc32)cc1N1CC(C(=O)O)C1 [Example 239, 1-[5-[2,2-dimethyl-7-(trifluoromethyl)-3H-1,4-benzoxazin-4-yl]2-methylphenyl]azetidine-3-carboxylic acid] | 118 | 0.234 | 96 to 99 | 102 | 6.11
CCc1cc2c(cc1-c1cccc(N3CC(C(=O)O)C3)c1)C(C)(C)CCC2(C)C [Example 86, 1-[3-(7-ethyl-1,1,4,4,-tetramethyltetralin-6-yl)phenyl]azetidine-3-carboxylic acid] | 107 | 0.006 | 78 to 88 | 97 | 0.016
Cc1cn(-c2cccc(N3CC(C(N)=O)C3)c2)c2ccc(C(F)(F)F)cc12 [Example 185, 1-[3-[3-methyl-5-(trifluoromethyl)indol-1-yl]phenyl]azetidine-3-carboxamide] | 95 | 0.005 | 160 to 163 | 90 | 0.007
O=C(O)C1CN(c2cccc(-n3cc(CN4CCOCC4)c4cc(C(F)(F)F)ccc43)c2)C1 [Example 132, 1-[3-[3-(morpholinomethyl)-5-(trifluoromethyl)indol-1-yl]phenyl]azetidine-3-carboxylic acid] | 97 | 0.061 | 93 to 98 | 132 | 0.133
